Test results from US20230233569A1 (Revolution Medicines, Inc., priority 2020, published 2023).

What was measured:
[1] = test system: P70S6K (Thr389) phosphorylation (mTORC1) in MDA-MB-468 cells; experiment: Cell based AlphaLISA assay, mTOR kinase cellular assay: inhibition of p-P70S6K (T389) in MDA-MB-468 cells; settings: Homo sapiens, read-out: pIC50 for Inhibition of mTORC1 and mTORC2 Substarte Phosphorylation p-P70S6K-(T389) (converted)
Procedure, shortened: (§1)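 MDA-MB-468 cells treated with compound at 0.017-1,000 nM for two to four hours at 37° C, then lysed. Phospho-AKT1/2/3 S473, 4EBP1 T37/46 and P70S6K T389 quantified by AlphaLISA SureFire Ultra in duplicate; IC50 from normalized regression with control-based normalization.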

[2] = test system: 4EBP1 (Thr37/46) phosphorylation (mTORC1) in MDA-MB-468 cells; experiment: Cell based AlphaLISA assay, mTOR kinase cellular assay: inhibition of p-4E-BP1 (T37/46) in MDA-MB-468 cells; settings: Homo sapiens, read-out: pIC50 for Inhibition of mTORC1 and mTORC2 Substarte Phosphorylation p-4E-BP1-(T37/46) (converted)
Procedure, shortened: as §1

[3] = test system: AKT1/2/3 (Ser473) phosphorylation (mTORC2) in MDA-MB-468 cells; experiment: Cell based AlphaLISA assay, mTOR kinase cellular assay: inhibition of p-Akt (S473) in MDA-MB-468 cells; settings: Homo sapiens, read-out: pIC50 for Inhibition of mTORC1 and mTORC2 Substarte Phosphorylation p-AKT1/2/3-(S473) (converted)
Procedure, shortened: as §1

In the case of `CO[C@H]1C[C@@H]2CC[C@@H](C)[C@@](O)(O2)C(=O)C(=O)N2CCCC[C@H]2C(=O)O[C@H]([C@H](C)C[C@@H]2CC[C@@H](OC(=O)NCc3cnc(N4CCN(c5ncc(C(=O)NCCOCCOCCOCCOCCC(=O)N6CCc7cc(Cn8nc(-c9ccc%10oc(N)nc%10c9)c9c(N)ncnc98)ccc7C6)cn5)CC4CO)nc3)[C@H](OC)C2)CC(=O)[C@H](C)/C=C(\C)[C@@H](O)[C@@H](OC)C(=O)[C@H](C)C[C@H](C)/C=C/C=C/C=C/1C` (stereo partly drawn) [Example 40], the IC50 [1] is reported as no more than 1 nM, the IC50 [2] is reported as no more than 3.16 nM and the IC50 [3] is reported as 3.16 to 31.6 nM.
Compound `CO[C@H]1C[C@@H]2CC[C@@H](C)[C@@](O)(O2)C(=O)C(=O)N2CCCC[C@H]2C(=O)O[C@H]([C@H](C)C[C@@H]2CC[C@@H](OC(=O)NCCOCCOCCOCCOCCC(=O)NCc3cnc(N4CCN(c5ncc(C(=O)N6CCc7cc(Cn8nc(-c9ccc%10oc(N)nc%10c9)c9c(N)ncnc98)ccc7C6)cn5)CC4)nc3)[C@H](OC)C2)CC(=O)[C@H](C)/C=C(\C)[C@@H](O)[C@@H](OC)C(=O)[C@H](C)C[C@H](C)/C=C/C=C/C=C/1C` [Example 46] has an IC50 [1] of no more than 1 nM, an IC50 [2] of no more than 3.16 nM and an IC50 [3] of 3.16 to 31.6 nM.
For `CO[C@H]1C[C@@H]2CC[C@@H](C)[C@@](O)(O2)C(=O)C(=O)N2CCCC[C@H]2C(=O)O[C@H]([C@H](C)C[C@@H]2CC[C@@H](OC(=O)NCCOCCOCCOCCOCCC(=O)NCc3cnc(N4CCN(c5ncc(C(=O)NCCCCn6nc(-c7cnc8[nH]ccc8c7)c7c(N)ncnc76)cn5)CC4)nc3)[C@H](OC)C2)CC(=O)[C@H](C)/C=C(\C)[C@@H](O)[C@@H](OC)C(=O)[C@H](C)C[C@H](C)/C=C/C=C/C=C/1C` [Example 47], the IC50 [1] was no more than 1 nM, the IC50 [2] was no more than 3.16 nM and the IC50 [3] was 3.16 to 31.6 nM.
`CO[C@H]1C[C@@H]2CC[C@@H](C)[C@@](O)(O2)C(=O)C(=O)N2CCCC[C@H]2C(=O)O[C@H]([C@H](C)C[C@@H]2CC[C@@H](OC(=O)NCCOCCOCCOCCOCCOCCOCCC(=O)N3CCC(N4CCC(C(=O)N5CCc6cc(Cn7nc(-c8ccc9oc(N)nc9c8)c8c(N)ncnc87)ccc6C5)CC4)CC3)[C@H](OC)C2)CC(=O)[C@H](C)/C=C(\C)[C@@H](O)[C@@H](OC)C(=O)[C@H](C)C[C@H](C)/C=C/C=C/C=C/1C` [Example 48] showed an IC50 [1] of no more than 1 nM, an IC50 [2] of no more than 3.16 nM and an IC50 [3] of 3.16 to 31.6 nM.
`CO[C@H]1C[C@@H]2CC[C@@H](C)[C@@](O)(O2)C(=O)C(=O)N2CCCC[C@H]2C(=O)O[C@H]([C@H](C)C[C@@H]2CC[C@@H](OC(=O)NCCOCCOCCOCCOCCC(=O)NCc3cnc(N4CCN(c5ncc(C(=O)N6CCc7cc(Cn8nc(-c9ccc%10oc(N)nc%10c9)c9c(N)ncnc98)ccc7C6)cn5)CC4)nc3)[C@H](OC)C2)C[C@@H](O)[C@H](C)/C=C(\C)[C@@H](O)[C@@H](OC)C(=O)[C@H](C)C[C@H](C)/C=C/C=C/C=C/1C` [Example 49] gave an IC50 [1] of no more than 1 nM, an IC50 [2] of no more than 3.16 nM and an IC50 [3] of 3.16 to 31.6 nM.
`CO[C@H]1C[C@@H]2CC[C@@H](C)[C@@](O)(O2)C(=O)C(=O)N2CCCC[C@H]2C(=O)O[C@H]([C@H](C)C[C@@H]2CC[C@@H](OC(=O)NCCOCCOCCOCCOCCC(=O)NCc3cnc(N4CCN(c5ncc(C(=O)N6CCc7cc(Cn8nc(-c9ccc%10oc(N)nc%10c9)c9c(N)ncnc98)ccc7C6)cn5)CC4)nc3)[C@H](OC)C2)C[C@@H](OC)[C@H](C)/C=C(\C)[C@@H](O)[C@@H](OC)C(=O)[C@H](C)C[C@H](C)/C=C/C=C/C=C/1C` [Example 50] was tested, and the IC50 [1] was no more than 1 nM, the IC50 [2] was no more than 3.16 nM and the IC50 [3] was 31.6 to 1000 nM.
`CO[C@H]1C[C@@H]2CC[C@@H](C)[C@@](O)(O2)C(=O)C(=O)N2CCCC[C@H]2C(=O)O[C@H]([C@H](C)C[C@@H]2CC[C@@H](OC(=O)NCc3cnc(N4CCN(C(=O)CCOCCN5CCN(c6ncc(C(=O)N7CCc8cc(Cn9nc(-c%10ccc%11oc(N)nc%11c%10)c%10c(N)ncnc%109)ccc8C7)cn6)CC5)CC4)nc3)[C@H](OC)C2)CC(=O)[C@H](C)/C=C(\C)[C@@H](O)[C@@H](OC)C(=O)[C@H](C)C[C@H](C)/C=C/C=C/C=C/1C` [Example 51] was tested, and the IC50 [1] was no more than 1 nM, the IC50 [2] was no more than 3.16 nM and the IC50 [3] was no more than 3.16 nM.
For `CO[C@H]1C[C@@H]2CC[C@@H](C)[C@@](O)(O2)C(=O)C(=O)N2CCCC[C@H]2C(=O)O[C@H]([C@H](C)C[C@@H]2CC[C@@H](OC(=O)N3CCc4nc(N5CCN(c6ncc(C(=O)N7CCN(c8ncc(C(=O)N9CCc%10cc(Cn%11nc(-c%12ccc%13oc(N)nc%13c%12)c%12c(N)ncnc%12%11)ccc%10C9)cn8)CC7)cn6)CC5)ncc4C3)[C@H](OC)C2)CC(=O)[C@H](C)/C=C(\C)[C@@H](O)[C@@H](OC)C(=O)[C@H](C)C[C@H](C)/C=C/C=C/C=C/1C` [Example 62], the IC50 [1] was 1 to 10 nM, the IC50 [2] was greater than 1000 nM and the IC50 [3] was greater than 1000 nM.
With `CO[C@H]1C[C@@H]2CC[C@@H](C)[C@@](O)(O2)C(=O)C(=O)N2CCCC[C@H]2C(=O)O[C@H]([C@H](C)C[C@@H]2CC[C@@H](OC(=O)NCc3cnc(N4CCN(C(=O)CCOCCN5CCN(c6ncc(C(=O)NCCOCCC(=O)NCCCCn7nc(-c8ccc9oc(N)nc9c8)c8c(N)ncnc87)cn6)CC5)CC4)nc3)[C@H](OC)C2)CC(=O)[C@H](C)/C=C(\C)[C@@H](O)[C@@H](OC)C(=O)[C@H](C)C[C@H](C)/C=C/C=C/C=C/1C` [Example 63] the IC50 [1] was no more than 1 nM, the IC50 [2] was no more than 3.16 nM and the IC50 [3] was no more than 3.16 nM.
`CO[C@H]1C[C@@H]2CC[C@@H](C)[C@@](O)(O2)C(=O)C(=O)N2CCCC[C@H]2C(=O)O[C@H]([C@H](C)C[C@@H]2CC[C@@H](OC(=O)NCc3cnc(N4CCN(C(=O)CCOCCN5CCN(c6ncc(C(=O)NCCOCCC(=O)N7CCc8cc(Cn9nc(-c%10ccc%11oc(N)nc%11c%10)c%10c(N)ncnc%109)ccc8C7)cn6)CC5)CC4)nc3)[C@H](OC)C2)CC(=O)[C@H](C)/C=C(\C)[C@@H](O)[C@@H](OC)C(=O)[C@H](C)C[C@H](C)/C=C/C=C/C=C/1C` [Example 64] was tested, and the IC50 [1] was no more than 1 nM, the IC50 [2] was no more than 3.16 nM and the IC50 [3] was 3.16 to 31.6 nM.
`CO[C@H]1C[C@@H]2CC[C@@H](C)[C@@](O)(O2)C(=O)C(=O)N2CCCC[C@H]2C(=O)O[C@H]([C@H](C)C[C@@H]2CC[C@@H](OC(=O)NCc3cnc(N4CCN(C(=O)CCOCCN5CCN(c6ncc(C(=O)NCCOCCC(=O)N7CCc8cc(Cn9nc(-c%10ccc%11oc(N)nc%11c%10)c%10c(N)ncnc%109)ccc8C7)cn6)CC5)CC4)nc3)[C@H](OC)C2)C[C@@H](OC)[C@H](C)/C=C(\C)[C@@H](O)[C@@H](OC)C(=O)[C@H](C)C[C@H](C)/C=C/C=C/C=C/1C` [Example 65] gave an IC50 [1] of no more than 1 nM, an IC50 [2] of no more than 3.16 nM and an IC50 [3] of 31.6 to 1000 nM.
For `CO[C@H]1C[C@@H]2CC[C@@H](C)[C@@](O)(O2)C(=O)C(=O)N2CCCC[C@H]2C(=O)O[C@H]([C@H](C)C[C@@H]2CC[C@@H](OC(=O)NCc3cnc(N4CCN(C(=O)CCOCCN5CCN(c6ncc(C(=O)NCCOCCC(=O)NCCCCn7nc(-c8cnc9[nH]ccc9c8)c8c(N)ncnc87)cn6)CC5)CC4)nc3)[C@H](OC)C2)CC(=O)[C@H](C)/C=C(\C)[C@@H](O)[C@@H](OC)C(=O)[C@H](C)C[C@H](C)/C=C/C=C/C=C/1C` [Example 66], the IC50 [1] was 10 to 1000 nM, the IC50 [2] was 31.6 to 1000 nM and the IC50 [3] was 3.16 to 31.6 nM.
Compound `CO[C@H]1C[C@@H]2CC[C@@H](C)[C@@](O)(O2)C(=O)C(=O)N2CCCC[C@H]2C(=O)O[C@H]([C@H](C)C[C@@H]2CC[C@@H](OC(=O)NCCOCCC(=O)NCc3cnc(N4CCN(C(=O)CCOCCN5CCN(c6ncc(C(=O)N7CCc8cc(Cn9nc(-c%10ccc%11oc(N)nc%11c%10)c%10c(N)ncnc%109)ccc8C7)cn6)CC5)CC4)nc3)[C@H](OC)C2)CC(=O)[C@H](C)/C=C(\C)[C@@H](O)[C@@H](OC)C(=O)[C@H](C)C[C@H](C)/C=C/C=C/C=C/1C` [Example 67] has an IC50 [1] of 10 to 1000 nM, an IC50 [2] of 31.6 to 1000 nM and an IC50 [3] of 31.6 to 1000 nM.
